Columns and labels:
Test in all cases: relative viability (nuclei count vs DMSO), 5 days (fraction); higher = more cells survive
Midostaurin + Phenformin = compound: CO[C@@H]1[C@H](N(C)C(=O)c2ccccc2)C[C@H]2O[C@]1(C)n1c3ccccc3c3c4c(c5c6ccccc6n2c5c31)C(=O)NC4 [Midostaurin] + N=C(N)NC(=N)NCCc1ccccc1 [Phenformin] (partner 250 µM)
Procedure, shortened: (§1)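 Lung cancer cell lines in 1536-well plates were dosed by pin tool the day after seeding, either with one drug alone or with a fixed anchor-drug dose plus five library-drug doses (not always all listed) in √10 steps. After 5 days, cells were fixed and their nuclei stained in one step (final 0.05% Triton X-100, 1% formaldehyde, 1 ug/ml Hoechst), then counted on 4× images. Relative viability is the nuclei count in treated wells divided by that in vehicle wells. Values are medians of duplicate plates.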

Midostaurin + Decitabine = compound: CO[C@@H]1[C@H](N(C)C(=O)c2ccccc2)C[C@H]2O[C@]1(C)n1c3ccccc3c3c4c(c5c6ccccc6n2c5c31)C(=O)NC4 [Midostaurin] + Nc1ncn([C@H]2C[C@H](O)[C@@H](CO)O2)c(=O)n1 [Decitabine] (partner 2 µM)
Procedure, shortened: as §1

[1] = compound: COc1cc(-c2nn([C@H]3CC[C@H](N4CCN(C(C)=O)CC4)CC3)c3ncnc(N)c23)ccc1NC(=O)c1cc2ccccc2n1C + CCNC(=O)c1noc(-c2cc(C(C)C)c(O)cc2O)c1-c1ccc(CN2CCOCC2)cc1 [Luminespib] (partner 0.01 µM)
Procedure, shortened: as §1

[2] = compound: COc1cc(-c2nn([C@H]3CC[C@H](N4CCN(C(C)=O)CC4)CC3)c3ncnc(N)c23)ccc1NC(=O)c1cc2ccccc2n1C + C[C@]1(O)C[C@@H](c2nc(-c3ccc4ccc(-c5ccccc5)nc4c3)c3c(N)nccn32)C1 [Linsitinib] (partner 1 µM)
Procedure, shortened: as §1

[3] = compound: COc1cc(-c2nn([C@H]3CC[C@H](N4CCN(C(C)=O)CC4)CC3)c3ncnc(N)c23)ccc1NC(=O)c1cc2ccccc2n1C + Nc1ncn([C@H]2C[C@H](O)[C@@H](CO)O2)c(=O)n1 [Decitabine] (partner 2 µM)
Procedure, shortened: as §1

Which results are given for UMC-11?
relative viability (Midostaurin + Phenformin; first compound 0.01 µM): 0.3; relative viability (Midostaurin + Phenformin; first compound 0.03162 µM): 0.328; relative viability (Midostaurin + Phenformin; first compound 0.1 µM): 0.32; relative viability (Midostaurin + Phenformin; first compound 0.3162 µM): 0.281; relative viability (Midostaurin + Decitabine; first compound 0.01 µM): 0.655; relative viability (Midostaurin + Decitabine; first compound 0.03162 µM): 0.772; relative viability (Midostaurin + Decitabine; first compound 0.1 µM): 0.637; relative viability (Midostaurin + Decitabine; first compound 0.3162 µM): 0.704; relative viability ([1]; first compound 0.0128 µM): 0.928; relative viability ([1]; first compound 0.04048 µM): 0.956; relative viability ([1]; first compound 0.128 µM): 0.922; relative viability ([1]; first compound 1.28 µM): 0.818; relative viability ([2]; first compound 0.0128 µM): 0.961; relative viability ([2]; first compound 0.04048 µM): 1.01; relative viability ([2]; first compound 0.128 µM): 0.984; relative viability ([2]; first compound 1.28 µM): 0.781; relative viability ([3]; first compound 0.0128 µM): 0.706; relative viability ([3]; first compound 0.04048 µM): 0.606; relative viability ([3]; first compound 0.128 µM): 0.745; relative viability ([3]; first compound 1.28 µM): 0.543
